Experimental data taken from patent publication US4661516A, “Diaminocyclohexane platinum complexes” (Research Corporation, priority 1984, dated 1987).

Legend:
[1] = Acute lethality, single intraperitoneal injection (Table XIII); format: in vivo
[2] = BUN (RUN [sic]) with the acute lethality data (Table XIII); format: in vivo; settings: mean + 1 S.D.
[3] = test system: L1210 leukemia cells (L1210/PDD); assay: In vitro cytotoxicity / cross-resistance, L1210/PDD (L1210/DDP) cells resistant to cisdiamminedichloroplatinum(II); format: cell-based; settings: L1210/DDP, Tables VII and VIII; 5760 min
Experimental: Four ml of cell suspension were added to culture tubes and the appropriate concentration (0.01, 0.1, 1 or 10 μg/ml final drug concentration) was added. After 96 hours the cell concentration of control and experimental cultures were calculated with the aid of a Coulter Counter® Model ZBf and the percent inhibition calculated.

[4] = test system: Wild type L1210 leukemic cells; assay: In vitro cytotoxicity, wild type L1210 leukemic cells (L1210/0); format: cell-based; settings: for ID50: L1210, 72 hours incubation; for ID50 L1210/0: L1210/0, protocol of Example 14, Tables VII and VIII, 4320 min
Experimental: Four ml of cell suspension (10^5 cells/ml) are added to culture tubes and the appropriate concentration (0.01, 0.1, 1 or 10 μg/ml final concentration) of drug added to the culture tubes. After 72 hours of incubation, the cell concentration of control and experimental cultures are determined with the aid of a Coulter Counter® Model ZBf and the percent inhibition calculated. […]

[5] = test system: L1210 cells; assay: In vivo anti-tumor activity, L1210, single i.p. injection; parameters: species or system BDF1 mice; settings: for Maximal Effective Dose: single i.p. injection; for % T/C: single i.p.
Experimental: About 24 hours after inoculation of the cells, the mice were injected intraperitoneally with varying dosages of complexes of the present invention. […] Long term survival signifies that animals were alive 60 days after inoculation with L1210 cells.

[6] = test system: L1210/0 leukemia cells; assay: In vivo anti-tumor activity, L1210 (L1210/0), multiple i.p. doses; parameters: species or system BDF1 mice; settings: for Long Term Survivors: days 1, 5 and 9, at maximal effective dose, alive 60 days after tumor inoculation; for Maximal Effective Dose: i.p. on days 1, 5 and 9; for LTS: survivors/treated 50 days after treatment
Experimental: BDF1 mice were inoculated intraperitoneally with 10^6 L1210 cells. About 24 hours after inoculation of the cells, the mice were injected intraperitoneally with varying dosages of complexes of the present invention. Six mice were used for each dosage level in each experiment with an equal number of control mice inoculated with 10^6 L1210 cells and left untreated with a given complex. The results [%T/C=(survival time of treated animals/survival time of control animals)×100] are set forth below. Long term survival signifies that animals were alive 60 days after inoculation with L1210 cells.
The procedure of Example 16 was repeated except that the treated animals were injected with multiple doses of the complex as indicated below:
The anti-tumor activity of compound number 3 was evaluated against cells sensitive to (L1210/0) and resistant to (L1210/PDD) the standard platinum complex cis-diamminedichloroplatinum(II).
The following complexes were tested in vivo oncolytic activity following 3 i.p. injections (days 1, 5, 9) according to the protocol described in Examples 16 and 17.
BDF1 mice were innoculated intraperitoreally with 10^6 L1210 leukemia cells and treatment was begun on the next day (day 1). Two treatment schedules, i.e. single i.p. injection of the drug and i.p. injections on days 1, 5 and 9 according to the protocol described in Examples 16 and 17 were used.

[7] = test system: B16 cells; assay: Melanotic melanoma test, i.p. inoculated B16 melanoma; format: in vivo, BDF1 mice; settings: for Maximal Effective Dose: B16, i.p. days 1, 5 and 9; for % T/C / Long Term Survivors: B16, i.p. days 1, 5 and 9, at maximal effective dose; for Long Term Survivors: 60 days
Experimental: The animals used were BDF1 mice, all of the same sex, weighing a minimum of 18 g. and all within a 4 g. weight range. There were 6 animals per test group. […] The test compounds were administered intraperitoneally on days 1, 5 and 9 at various doses. The animals were weighed and survivors were recorded on a regular basis for 60 days. The median survival time and the ratio of survival time for treated (T)/control (C) animals were calculated. […] The criterion for efficacy is T/C×100≥125%.

[8] = Table IX, at maximal effective dose
[9] = Tables X and XI, i.p. on days 1, 5 and 9, at maximal effective dose
[10] = 6.25 mg/kg i.p., days 1, 5, 9, 30 day observation period
[11] = 12.5 mg/kg i.p., days 1, 5, 9, 30 day observation period
[12] = 25 mg/kg i.p., days 1, 5, 9, 30 day observation period

Compound | LD10 [1] | LD50 [1] | LD90 [1] | RUN [2] | ID50 L1210/DDP [3] | ID50 [4] | ID50 L1210/0 [4] | Maximal Effective Dose ([5]; Table IX) | % T/C [5, 8] | Long Term Survivors ([6]; Tables X and XI) | Maximal Effective Dose ([6]; Tables X and XI) | % T/C [6, 9] | Maximal Effective Dose [7] | % T/C [7] | Long Term Survivors [7] | % T/C ([5]; 12.5 mg/kg) | % T/C ([5]; 25 mg/kg) | % T/C ([5]; 50 mg/kg) | % T/C [6, 10] | % T/C [6, 11] | other results
NC1CCCCC1N.O.O.O=C([O-])CN(CCO)CC(=O)[O-].[Pt+2] [Compound 39, N--(2-Hydroxyethyl)-iminodiacetato(DACH)Pt(II).2H2 O] | 63 mg/kg | 150 mg/kg | 301 mg/kg | 18 ± 2 mg/100 ml | 0.9 µg/mL | 3.0 µg/mL | 0.7 µg/mL | 25 mg/kg | 180% | 4/6 | 25 mg/kg | 450% | 25 mg/kg | 196% | 2/6 |  |  |  |  |  | 
NC1CCCCC1N.O.O.O=C([O-])CN(CC(=O)[O-])c1ccccc1.[Pt+2] [Compound 37, N--Phenyliminodiacetato(DACH)Pt(II).2H2 O] | 56 mg/kg | 81 mg/kg | 135 mg/kg | 18 ± 1 mg/100 ml | 2.6 µg/mL | 1.0 µg/mL | 2.3 µg/mL | 12.5 mg/kg | 172% | 4/6 | 12.5 mg/kg | 537% | 25 mg/kg | 215% | 0/6 | 172% | 156% | 108% | 246% | 298% | LTS ([6]; 6.25 mg/kg, days 1, 5, 9): 3/6; LTS ([6]; 12.5 mg/kg, days 1, 5, 9): 5/6; % T/C [6, 12]: 242%; LTS ([6]; 25 mg/kg, days 1, 5, 9): 1/6
NC1CCCCC1N.O=C([O-])CN(CC(=O)[O-])Cc1ccccc1.[Pt+2] [Compound 38, N--Benzyliminodiacetato(DACH)Pt(II)] | 81 mg/kg | 140 mg/kg | 210 mg/kg | 27 ± 3 mg/100 ml | 0.8 µg/mL | 2.3 µg/mL | 1.0 µg/mL | 25 mg/kg | 170% | 2/6 | 12.5 mg/kg | 397% | 12.5 mg/kg | 207% | 1/6 | 123% | 170% | 158% | 277% | 287% | LTS ([6]; 12.5 mg/kg, days 1, 5, 9): 1/6; % T/C [6, 12]: 240%; LTS ([6]; 25 mg/kg, days 1, 5, 9): 2/6
